Source: the NIST ThermoML archive (doi:10.1021/je100381g)
± gives the expanded uncertainty stated by the source.

Settings: Fluid (supercritical or subcritical phases)

N#N [nitrogen]
Settings	mass density [kg/m3]
265 K, 967 kPa	12.355 ± 0.001
265 K, 1937 kPa	24.865 ± 0.002
265 K, 3929 kPa	50.84 ± 0.002
265 K, 5996 kPa	77.972 ± 0.003
265 K, 7985 kPa	104.063 ± 0.004
265 K, 9835 kPa	128.039 ± 0.004
265 K, 15014 kPa	192.346 ± 0.006
265 K, 20022 kPa	248.359 ± 0.008
265 K, 25019 kPa	297.183 ± 0.009
265 K, 30006 kPa	339.165 ± 0.011
265 K, 35119 kPa	376.198 ± 0.012
265 K, 50041 kPa	459.104 ± 0.014
265 K, 74887 kPa	549.76 ± 0.017
265 K, 100559 kPa	613.291 ± 0.019
293 K, 965 kPa	11.119 ± 0.001
293 K, 1933 kPa	22.306 ± 0.002
293 K, 3923 kPa	45.361 ± 0.002
293 K, 5988 kPa	69.244 ± 0.003
293 K, 7971 kPa	91.982 ± 0.003
293 K, 9822 kPa	112.91 ± 0.004
293 K, 14872 kPa	167.663 ± 0.006
293 K, 19976 kPa	218.428 ± 0.007
293 K, 24948 kPa	262.722 ± 0.008
293 K, 29965 kPa	302.337 ± 0.01
293 K, 34993 kPa	337.389 ± 0.011
293 K, 39916 kPa	367.801 ± 0.011
293 K, 50130 kPa	421 ± 0.013
293 K, 74957 kPa	513.932 ± 0.016
293 K, 99903 kPa	578.472 ± 0.018
293 K, 125585 kPa	628.863 ± 0.019
293 K, 150976 kPa	668.88 ± 0.02
298.15 K, 10005 kPa	112.564 ± 0.004
298.15 K, 30026 kPa	296.94 ± 0.009
298.15 K, 49844 kPa	413.221 ± 0.013
298.15 K, 74988 kPa	507.852 ± 0.016
298.15 K, 100175 kPa	573.318 ± 0.018
298.15 K, 124825 kPa	622.069 ± 0.019
298.15 K, 151239 kPa	664.101 ± 0.02
350 K, 2974 kPa	28.486 ± 0.002
350 K, 4917 kPa	46.878 ± 0.002
350 K, 5971 kPa	56.772 ± 0.002
350 K, 7481 kPa	70.762 ± 0.003
350 K, 9976 kPa	93.531 ± 0.003
350 K, 13786 kPa	127.029 ± 0.004
350 K, 17230 kPa	155.891 ± 0.005
350 K, 20677 kPa	183.287 ± 0.006
350 K, 24132 kPa	209.197 ± 0.007
350 K, 27582 kPa	233.51 ± 0.008
350 K, 29848 kPa	248.687 ± 0.008
350 K, 34691 kPa	279.018 ± 0.009
350 K, 49978 kPa	358.872 ± 0.011
350 K, 74999 kPa	452.98 ± 0.014
350 K, 99994 kPa	520.331 ± 0.016
350 K, 124395 kPa	571.157 ± 0.018
350 K, 150364 kPa	614.997 ± 0.019
400 K, 1004 kPa	8.432 ± 0.001
400 K, 1999 kPa	16.747 ± 0.002
400 K, 2999 kPa	25.04 ± 0.002
400 K, 4000 kPa	33.281 ± 0.002
400 K, 5001 kPa	41.463 ± 0.002
400 K, 7000 kPa	57.573 ± 0.002
400 K, 8004 kPa	65.564 ± 0.003
400 K, 10000 kPa	81.202 ± 0.003
400 K, 14997 kPa	118.841 ± 0.004
400 K, 19991 kPa	154.143 ± 0.005
400 K, 24998 kPa	187.116 ± 0.006
400 K, 29991 kPa	217.621 ± 0.007
400 K, 35015 kPa	246.029 ± 0.008
400 K, 40004 kPa	272.126 ± 0.009
400 K, 49964 kPa	318.659 ± 0.01
400 K, 59948 kPa	358.969 ± 0.011
400 K, 69931 kPa	394.143 ± 0.012
400 K, 79958 kPa	425.322 ± 0.013
400 K, 89963 kPa	453.061 ± 0.014
400 K, 99951 kPa	477.982 ± 0.015
400 K, 110031 kPa	500.804 ± 0.015
400 K, 120573 kPa	522.585 ± 0.016
